Reference: patent US10000641B2, “Method and composition for preventing corrosion of metal surfaces” (Ecolab USA Inc., priority 2010, dated 2018)

What was measured:
[1] = standard testing procedures for biodegradability
[2] = Linear Polarisation Resistance (LPR) Bubble test, corrosion rate
Protocol: The corrosion inhibition (CI) performance of compounds and compositions of the invention and the performance of comparative examples was tested by means of Linear Polarisation Resistance (LPR) Bubble test measurements.
In general, the LPR Bubble test method uses a test cell, typically made from glass, which is fitted with a probe containing electrodes which are connected to an electrochemical measurement system and associated software. The cell is also fitted with a gas inlet and frit to allow constant purging with CO2 gas. The cell can be loaded with test fluids, typically brine or a combination of brine and a suitable oil phase. The liquids may be stirred, typically at low or moderate speeds, or may be static. The instantaneous rate of corrosion can be measured throughout the experiment by means of the electrochemical probe which extends into the water phase. Other experiments, such as a cyclic sweep, or cyclic polarisation measurement, can also be performed.
In our experiments, the LPR cells were loaded with 95 parts of water (brine) and 5 parts kerosene. The test temperature was 50° C. in all experiments, while details of the water phase pH values relevant to each water composition are given in this Table. The cells were continuously purged with CO2 gas and a stirring speed of 100 rpm was used.
To perform the test, the electrode was allowed to pre-corrode for 2 hours, after which a test corrosion inhibitor composition was added to the kerosene phase. The test was then continued for a total of approximately 14 hours.

Skeletonema costatum = test: ISO 10253 1998 water quality marine algal growth inhibition test; assay type: cell-based
Protocol: Toxicity (EC50) was measured by a standard test: ISO 10253 1998 water quality—marine algal growth inhibition test with Skeletonema costatum.

[3] = Table 5, Brine A, 10 ppm, blends also contain ethoxylated fatty acid ester and Na thiosulfate
[4] = Brine B, 50° C., 10 ppm test chemical with sodium thiosulfate

With `O=C([O-])c1ccccc1.[Na+]` [sodium benzoate] the biodegraded ([1]; after 7 days) was “about 85.5%”, the biodegraded ([1]; after 14 days) was “about 95%” and the biodegraded ([1]; after 28 days) was 100%.
In the case of `CCCCCCCCCC[N+](C)(C)CCCCCCCCCC` [Mixture E], the “% Inhibition” value [2, 3] is reported as 99.8% and the Final corrosion rate [2, 3] is reported as 0.009 mmpy.
In the case of Na Oleyl amphoacetate, the “Algae toxicity (EC50)” value (Skeletonema costatum) is reported as 2.0 µg/mL, the “% Inhibition” value ([2]; Brine A, 50° C., 10 ppm test chemical with sodium thiosulfate) is reported as 96.81% and the Final corrosion rate ([2]; Brine A, 50° C., 10 ppm test chemical with sodium thiosulfate, 95:5 brine:kerosene, CO2 purge) is reported as 0.12 mmpy. For the same molecule, the “% Inhibition” value [2, 4] was over 99.99% and the Final corrosion rate [2, 4] was 0.00014 mmpy.
